One assay addresses T1, TLR9 (Homo sapiens, UniProt Q9NR96).
T1 construct: lymphocytes, monocytes and dendritic cells that express TLR7, TLR8 and TLR9; endogenous in cells; host or cells: human PBMCs from healthy donors
T1 sequence (Q9NR96 26-1032): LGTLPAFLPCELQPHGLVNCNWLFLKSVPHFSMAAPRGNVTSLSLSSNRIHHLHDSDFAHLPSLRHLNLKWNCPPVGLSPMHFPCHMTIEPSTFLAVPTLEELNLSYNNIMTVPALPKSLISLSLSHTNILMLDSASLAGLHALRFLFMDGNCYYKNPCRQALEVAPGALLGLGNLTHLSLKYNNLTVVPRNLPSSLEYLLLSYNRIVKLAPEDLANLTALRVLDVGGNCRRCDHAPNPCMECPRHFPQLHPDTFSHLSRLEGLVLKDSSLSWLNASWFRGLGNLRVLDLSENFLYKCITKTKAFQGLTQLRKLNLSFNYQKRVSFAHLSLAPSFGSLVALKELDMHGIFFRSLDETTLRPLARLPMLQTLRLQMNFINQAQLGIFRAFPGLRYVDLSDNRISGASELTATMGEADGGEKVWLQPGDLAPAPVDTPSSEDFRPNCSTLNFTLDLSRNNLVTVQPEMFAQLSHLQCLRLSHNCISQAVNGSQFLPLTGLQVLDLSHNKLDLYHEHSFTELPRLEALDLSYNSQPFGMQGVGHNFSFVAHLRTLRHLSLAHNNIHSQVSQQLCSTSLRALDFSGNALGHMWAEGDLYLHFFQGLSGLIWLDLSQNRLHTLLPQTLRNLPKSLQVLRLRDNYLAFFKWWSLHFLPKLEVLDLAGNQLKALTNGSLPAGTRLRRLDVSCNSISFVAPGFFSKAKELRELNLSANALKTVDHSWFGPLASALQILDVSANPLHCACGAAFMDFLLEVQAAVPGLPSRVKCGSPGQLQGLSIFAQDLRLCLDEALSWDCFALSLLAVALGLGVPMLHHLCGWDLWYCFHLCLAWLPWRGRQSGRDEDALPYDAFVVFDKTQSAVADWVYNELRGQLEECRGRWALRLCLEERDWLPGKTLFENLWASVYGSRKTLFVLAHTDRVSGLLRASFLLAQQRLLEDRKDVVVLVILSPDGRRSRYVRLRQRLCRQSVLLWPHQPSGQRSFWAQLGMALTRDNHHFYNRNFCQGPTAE
Kind of assay: Human PBMC cell-based assay, TLR9 agonist ODN-2216 stimulation, cytokine (IL-6 and IFNα) readout. The following applies: human PBMCs, read-out: TLR-9 EC50. A digest of the protocol:
(§1)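 Readout is IL-6 and IFNα in supernatants, quantified by electrochemiluminescence, with EC50 from a sigmoidal fit of cytokine versus concentration. Healthy-donor human PBMCs, 100,000 per well, got antagonist for 1 h at 37 °C, then 6 h agonist exposure: TLR7 via GS-986 at 400 nM final, TLR9 via ODN-2216 at 3 μM final.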

In a further assay the target is T2, TLR7 (Homo sapiens, UniProt Q9NYK1).
T2 construct: lymphocytes, monocytes and dendritic cells that express TLR7, TLR8 and TLR9; endogenous in cells; host or cells: human PBMCs from healthy donors
T2 sequence (Q9NYK1 27-1049): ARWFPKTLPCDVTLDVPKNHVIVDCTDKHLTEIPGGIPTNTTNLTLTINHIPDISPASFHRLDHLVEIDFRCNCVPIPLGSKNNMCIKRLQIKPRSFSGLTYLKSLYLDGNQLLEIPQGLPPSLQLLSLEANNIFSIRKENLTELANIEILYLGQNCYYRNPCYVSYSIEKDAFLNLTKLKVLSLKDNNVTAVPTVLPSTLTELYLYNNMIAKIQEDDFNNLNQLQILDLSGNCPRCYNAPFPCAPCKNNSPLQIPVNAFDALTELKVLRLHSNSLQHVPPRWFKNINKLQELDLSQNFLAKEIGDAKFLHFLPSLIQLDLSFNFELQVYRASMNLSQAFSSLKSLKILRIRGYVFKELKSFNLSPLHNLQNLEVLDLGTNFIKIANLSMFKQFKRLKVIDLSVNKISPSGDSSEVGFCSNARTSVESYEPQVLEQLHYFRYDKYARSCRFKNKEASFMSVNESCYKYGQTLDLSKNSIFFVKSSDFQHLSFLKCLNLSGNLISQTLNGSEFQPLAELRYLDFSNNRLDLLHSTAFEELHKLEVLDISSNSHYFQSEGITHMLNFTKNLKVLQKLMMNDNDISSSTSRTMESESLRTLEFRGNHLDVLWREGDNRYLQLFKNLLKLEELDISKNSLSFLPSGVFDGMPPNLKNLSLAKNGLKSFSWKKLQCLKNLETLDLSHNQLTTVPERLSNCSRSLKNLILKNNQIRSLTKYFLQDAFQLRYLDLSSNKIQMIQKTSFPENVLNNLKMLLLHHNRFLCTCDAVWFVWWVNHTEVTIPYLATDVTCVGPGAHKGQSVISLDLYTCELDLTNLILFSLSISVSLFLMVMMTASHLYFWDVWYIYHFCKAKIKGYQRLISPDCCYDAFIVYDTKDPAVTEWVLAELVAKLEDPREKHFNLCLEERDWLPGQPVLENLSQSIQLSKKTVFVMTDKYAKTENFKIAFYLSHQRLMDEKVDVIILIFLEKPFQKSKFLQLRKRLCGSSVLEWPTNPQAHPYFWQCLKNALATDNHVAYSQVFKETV
Kind of assay: Human PBMC cell-based assay, TLR7 agonist GS-986 stimulation, cytokine (IL-6 and IFNα) readout. The conditions noted are these: human PBMCs, read-out: TLR-7 EC50. A digest of the protocol: as §1

The target in assay [1] is cloned hERG potassium channel encoded by the KCNH2 gene (Homo sapiens, UniProt Q12809). Put plainly: hERG FASTPatch assay (QPatch patch clamp, HEK293T cells). The following applies: HEK293T cells, 1, 3, 10 and 30 uM, room temperature; Table 27. The assay is classed as cell-based. How it is done:
The FASTPatch® Assay (Charles River) was used to examine the in vitro effects of the compounds provided herein on the cloned hERG potassium channel encoded by the KCNH2 gene and stably expressed in HEK293T cells. Vehicle, test and control article formulations were prepared by diluting DMSO stock solutions in HB-PS (HEPES-buffered physiological saline solution) and were delivered to cells via the QPatch robot pipetting system to a final concentration of 0.3% DMSO. Test compound final concentrations of 1, 3, 10 and 30 uM were applied to cells (n >3, where n=the number of cells/concentration) in ascending order in at least three minute intervals separated by solution exchange. The positive control, 50 nM cisparide, was applied in the same manner. Cell membrane currents were recorded at room temperature with up to 48 parallel patch clamp amplifiers in the QPatch HT® or QPatch HTX® system, and only cells with validated whole-cell recordings (seal resistance >200 MQ and leak current <25% channel current) were used. Onset and block of hERG current was measured using a stimulus voltage pattern consisting of a 500 ms prepulse to −40 mV, a 2-second activating pulse to +40 mV, followed by a 2-second test pulse to −40 mV. The pulse pattern was repeated continuously at 10-second intervals from a holding potential of −80 mV. % Block={1-1/[1+([Test]/IC50)^N]}*100% Where [Test] is the concentration of test article, IC50 is the concentration of the test article producing half-maximal inhibition, N is the Hill coefficient and % Block is the percentage of current inhibited at each concentration of the test article. Nonlinear least squares fits will be solved with the Solver add-in for Excel 2000 or later (Microsoft, Redmon, WA). TurboSol analysis for test compound solubility was performed for each concentration tested using a Nephelostar reader measuring light scatter from a 635 nm laser source. Based on validation experiments, light scatter above four times the background level was considered an indication of the presence of particles in suspension.

The mark [2] stands for this setting: ODN-2216 3 μM, 6 hours, Table 26.
Setting [3] is: GS-986 400 nM, 6 hours, Table 26.

Read-outs that look alike come from different tables or passages of the source.

Our source for the EC50 and IC50 values is US20250002471A1 (Gilead Sciences, Inc., priority 2020, published 2025).

Chain of cloned hERG potassium channel encoded by the KCNH2 gene (Q12809 whole entry): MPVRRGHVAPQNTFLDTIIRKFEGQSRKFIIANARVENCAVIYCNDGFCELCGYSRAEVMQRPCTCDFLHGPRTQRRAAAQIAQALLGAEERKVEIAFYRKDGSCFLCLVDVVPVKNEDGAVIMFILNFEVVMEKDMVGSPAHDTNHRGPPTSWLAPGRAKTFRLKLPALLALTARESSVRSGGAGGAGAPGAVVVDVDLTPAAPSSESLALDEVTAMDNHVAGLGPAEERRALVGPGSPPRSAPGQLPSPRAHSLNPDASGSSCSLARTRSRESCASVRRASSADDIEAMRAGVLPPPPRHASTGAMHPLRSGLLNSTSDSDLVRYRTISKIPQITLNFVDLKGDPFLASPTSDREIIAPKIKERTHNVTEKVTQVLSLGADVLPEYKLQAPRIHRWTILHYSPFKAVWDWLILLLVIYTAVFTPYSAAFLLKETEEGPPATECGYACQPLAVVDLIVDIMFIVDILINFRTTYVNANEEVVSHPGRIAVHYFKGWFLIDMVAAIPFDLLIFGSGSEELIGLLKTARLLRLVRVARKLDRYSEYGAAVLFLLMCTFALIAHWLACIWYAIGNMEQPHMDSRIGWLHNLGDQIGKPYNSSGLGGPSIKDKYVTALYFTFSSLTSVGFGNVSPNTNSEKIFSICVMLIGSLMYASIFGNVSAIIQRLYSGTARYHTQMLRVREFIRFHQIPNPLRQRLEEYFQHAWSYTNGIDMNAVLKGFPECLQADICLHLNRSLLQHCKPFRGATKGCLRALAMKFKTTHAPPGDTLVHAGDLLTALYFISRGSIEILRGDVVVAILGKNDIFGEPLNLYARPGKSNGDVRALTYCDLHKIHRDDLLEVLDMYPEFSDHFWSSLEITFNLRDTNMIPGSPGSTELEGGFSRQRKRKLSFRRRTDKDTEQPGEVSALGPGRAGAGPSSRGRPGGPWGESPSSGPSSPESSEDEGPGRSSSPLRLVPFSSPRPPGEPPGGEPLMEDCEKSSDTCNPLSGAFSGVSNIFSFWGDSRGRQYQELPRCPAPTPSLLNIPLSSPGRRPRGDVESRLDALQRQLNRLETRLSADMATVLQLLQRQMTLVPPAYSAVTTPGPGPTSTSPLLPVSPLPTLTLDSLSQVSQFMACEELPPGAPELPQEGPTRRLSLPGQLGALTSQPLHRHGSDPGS

Regarding `Cc1cc(-c2[nH]c3cc(-c4ccc(N5CCC(C)(N)CC5)nc4)ccc3c2C)cc(C)n1` [Example 23], the EC50 at TLR9 (setting [2]) amounted to 29 nM; at TLR7 (setting [3]), 16.8 nM. This compound had a half-maximal inhibitory concentration (IC50) in assay [1] of 18500 nM.
Regarding `Cc1cc(-c2[nH]c3cc(-c4ccnc(N5CCNCC5)c4)ccc3c2C)cc(C)n1` [Example 64], the figures for the EC50 on TLR9 (setting [2]) and on TLR7 (setting [3]) were 136 nM and 315 nM, respectively. Inhibition in assay [1] was half-maximal at 20300 nM (IC50).
Consider `Cc1cc(-c2[nH]c3ccc(-c4ccnc(N5CCNCC5)c4)cc3c2C(C)C)cc(C)n1` [Example B, reference compound], for which the EC50 at TLR9 (Table 27 comparison) came out at 285 nM; on TLR7 (Table 27 comparison) it was 7.8 nM. This compound yielded a half-inhibitory concentration (IC50) in assay [1] of 2100 nM.
For the compound `Cc1cc(-c2[nH]c3ccc(C4CCCNC4)cc3c2C(C)C)cc(C)n1` (stereo not drawn) [Example C, reference compound], the EC50 on TLR9 (Table 27 comparison) turned out to be 583 nM; at TLR7 (Table 27 comparison), 2.3 nM. Further, the IC50 in assay [1] was found to be 11000 nM.
Taken in the same sequence, the figures for `Cc1cc(-c2[nH]c3ccc(-c4ccc(N5CCC(C)(N)CC5)nc4)cc3c2C(C)C)cc(C)n1` [Example D, reference compound] were 249 nM, 12 nM and 7800 nM.

The term EC50 denotes the concentration giving half of the maximal effect. The term IC50 denotes the concentration needed to halve the response being measured.
